Assay results as given in ChEMBL document CHEMBL1201862, “PubChem BioAssay data set” (2004).
Calls of active or inactive are those of the source.

Tests used:
Cytochrome P450 2D6 = Cytochrome P450 2D6 (Homo sapiens, UniProt P10635);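 also: CYP2D6 member of a cytochrome P450 panel assay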
Cytochrome P450 3A4 = Cytochrome P450 3A4 (Homo sapiens, UniProt P08684);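 also: CYP3A4 tested as one member of a cytochrome P450 panel screen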
Cytochrome P450 2C19 = Cytochrome P450 2C19 (Homo sapiens, UniProt P33261); assay: Cytochrome panel assay with activity outcomes. Panel member name: p450-cyp2c19 Compounds with AC50 equal or less than 10 uM are considered active; format: functional; conditions: read-out: AC50
cells = format: functional
[1] = NIH-3T3 fibroblast cytotoxicity, dose response, cytotoxicity control, cell-based, fluorescence, Alamar Blue, secondary assay (AID 2327); format: functional;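 also: NIH-3T3 mouse fibroblasts cultured with fluconazole at 8 µg/mL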
[2] = inhibitors of intracellular T. cruzi replication, confirmation, NIH3T3 host cells, beta-gal luminescence (AID 2044); format: functional, cell-based;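 also: intracellular parasites grown in NIH/3T3 mouse fibroblasts as host cells; luminescent beta-galactosidase reporter signal from transgenic T. cruzi replicating inside host cells; inhibitors lower the luminescence signal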
[3] = cytotoxicity toward NIH3T3 fibroblasts, dose response, counter-screen, cell-based, ATP luminescence, mouse fibroblasts (AID 2010); format: functional;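 also: cells exposed to compound for about 90 hours before reading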
[4] = C. albicans growth with fluconazole, confirmation, fluorescence, retest (AID 2467); format: functional, cell-based
[5] = microbe, parasite or virus in culture; format: functional; conditions: Mycobacterium tuberculosis
Protein skinhead-1 = biological target: T1, Protein skinhead-1 (Caenorhabditis elegans, UniProt P34707); format: functional
T1 sequence (P34707 whole entry): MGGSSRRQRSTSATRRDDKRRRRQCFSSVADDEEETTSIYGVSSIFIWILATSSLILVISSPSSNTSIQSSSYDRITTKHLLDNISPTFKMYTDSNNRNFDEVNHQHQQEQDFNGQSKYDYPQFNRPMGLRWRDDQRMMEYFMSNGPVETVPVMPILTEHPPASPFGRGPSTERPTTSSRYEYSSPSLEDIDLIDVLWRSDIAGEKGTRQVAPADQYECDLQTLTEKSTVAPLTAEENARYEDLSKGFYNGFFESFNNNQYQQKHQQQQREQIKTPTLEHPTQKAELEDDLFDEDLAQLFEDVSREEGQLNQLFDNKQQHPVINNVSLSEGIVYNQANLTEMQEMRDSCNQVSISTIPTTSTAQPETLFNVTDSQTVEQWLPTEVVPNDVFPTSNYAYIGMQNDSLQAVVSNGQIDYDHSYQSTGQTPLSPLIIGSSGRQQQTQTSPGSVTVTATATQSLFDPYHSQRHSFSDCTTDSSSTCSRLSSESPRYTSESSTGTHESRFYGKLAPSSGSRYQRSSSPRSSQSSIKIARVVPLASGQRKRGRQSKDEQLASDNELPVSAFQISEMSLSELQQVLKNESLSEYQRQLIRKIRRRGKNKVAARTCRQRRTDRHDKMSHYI

Cytochrome P450 2C9 = Cytochrome P450 2C9 (Homo sapiens, UniProt P11712)
[6] = biological target: T2, Replicative DNA helicase DnaB (Mycobacterium tuberculosis, UniProt P9WMR3); assay: DnaB intein splicing inhibitors, dose response, biochemical, cell-free fluorescence (AID 449749); format: functional
T2 sequence (P9WMR3 whole entry): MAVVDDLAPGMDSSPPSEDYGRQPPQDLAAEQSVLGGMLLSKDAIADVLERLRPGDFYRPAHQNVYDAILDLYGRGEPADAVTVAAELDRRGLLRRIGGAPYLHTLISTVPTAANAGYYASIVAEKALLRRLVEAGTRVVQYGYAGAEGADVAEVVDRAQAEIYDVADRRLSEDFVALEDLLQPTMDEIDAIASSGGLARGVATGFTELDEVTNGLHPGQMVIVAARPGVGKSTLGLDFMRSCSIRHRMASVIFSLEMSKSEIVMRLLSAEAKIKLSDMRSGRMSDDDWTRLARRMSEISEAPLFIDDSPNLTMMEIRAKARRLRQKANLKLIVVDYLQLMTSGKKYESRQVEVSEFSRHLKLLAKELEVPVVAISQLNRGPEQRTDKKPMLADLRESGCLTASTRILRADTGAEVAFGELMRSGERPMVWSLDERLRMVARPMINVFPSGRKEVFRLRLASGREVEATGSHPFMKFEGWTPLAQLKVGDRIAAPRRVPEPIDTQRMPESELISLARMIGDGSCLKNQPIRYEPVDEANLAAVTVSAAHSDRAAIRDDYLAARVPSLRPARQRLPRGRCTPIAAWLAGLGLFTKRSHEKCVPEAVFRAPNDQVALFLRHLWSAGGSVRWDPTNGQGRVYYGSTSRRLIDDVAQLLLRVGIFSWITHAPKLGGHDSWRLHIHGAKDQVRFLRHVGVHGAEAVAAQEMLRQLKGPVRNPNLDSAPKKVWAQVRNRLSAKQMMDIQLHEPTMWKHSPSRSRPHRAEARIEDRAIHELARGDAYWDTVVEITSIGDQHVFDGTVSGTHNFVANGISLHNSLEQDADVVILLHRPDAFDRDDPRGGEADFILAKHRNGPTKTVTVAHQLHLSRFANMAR

Protein RecA = biological target: T3, Protein RecA (Mycobacterium tuberculosis, UniProt P9WHJ3); assay: Fluorescence Cell-Free Homogeneous Dose Retest to Identify Inhibitors of RecA-Intein Splicing Activity. [Related pubchem assays (depositor defined):AID2097, AID2223, AID489010, AID492950]; format: functional
T3 sequence (P9WHJ3 whole entry): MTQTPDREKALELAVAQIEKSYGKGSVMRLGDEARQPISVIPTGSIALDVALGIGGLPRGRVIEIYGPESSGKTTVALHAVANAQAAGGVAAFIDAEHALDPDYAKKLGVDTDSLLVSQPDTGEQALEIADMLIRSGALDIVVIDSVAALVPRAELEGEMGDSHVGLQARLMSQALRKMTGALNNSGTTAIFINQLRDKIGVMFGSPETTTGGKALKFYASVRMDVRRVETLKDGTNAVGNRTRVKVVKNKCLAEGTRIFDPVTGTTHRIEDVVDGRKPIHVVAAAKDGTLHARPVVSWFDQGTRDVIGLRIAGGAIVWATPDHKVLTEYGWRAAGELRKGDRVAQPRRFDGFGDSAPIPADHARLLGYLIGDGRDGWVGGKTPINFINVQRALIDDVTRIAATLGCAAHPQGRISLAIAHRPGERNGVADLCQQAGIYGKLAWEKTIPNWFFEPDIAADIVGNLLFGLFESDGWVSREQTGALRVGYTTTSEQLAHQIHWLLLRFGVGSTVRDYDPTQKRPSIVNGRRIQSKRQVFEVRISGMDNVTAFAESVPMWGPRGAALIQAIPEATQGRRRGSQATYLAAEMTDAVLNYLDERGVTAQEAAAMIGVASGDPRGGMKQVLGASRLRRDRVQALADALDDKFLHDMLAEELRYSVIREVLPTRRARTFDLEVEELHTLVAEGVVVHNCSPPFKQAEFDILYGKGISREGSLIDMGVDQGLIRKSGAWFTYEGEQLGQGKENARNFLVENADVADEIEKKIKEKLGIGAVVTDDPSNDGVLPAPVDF

[7] = biological target: T4, Corticotropin-releasing factor receptor 2/Corticotropin-releasing factor-binding protein (Homo sapiens, UniProt P24387+Q13324); assay: activators of CRF receptor 2 with binding protein – uHTS hits, confirmation (AID 602473); format: functional; conditions: read-out: EC50_Mean
T4 sequence (Q13324 whole entry): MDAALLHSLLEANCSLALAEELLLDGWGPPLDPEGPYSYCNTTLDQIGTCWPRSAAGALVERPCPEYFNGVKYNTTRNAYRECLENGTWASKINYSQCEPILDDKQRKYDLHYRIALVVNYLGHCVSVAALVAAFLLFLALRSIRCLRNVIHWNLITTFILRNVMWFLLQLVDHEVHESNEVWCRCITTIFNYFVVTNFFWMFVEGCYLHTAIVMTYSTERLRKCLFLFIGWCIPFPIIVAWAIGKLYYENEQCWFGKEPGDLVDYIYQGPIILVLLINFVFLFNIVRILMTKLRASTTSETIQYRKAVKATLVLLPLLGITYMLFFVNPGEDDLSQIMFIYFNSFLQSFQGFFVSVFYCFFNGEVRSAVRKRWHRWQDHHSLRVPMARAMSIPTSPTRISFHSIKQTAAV
T4 sequence (P24387 whole entry): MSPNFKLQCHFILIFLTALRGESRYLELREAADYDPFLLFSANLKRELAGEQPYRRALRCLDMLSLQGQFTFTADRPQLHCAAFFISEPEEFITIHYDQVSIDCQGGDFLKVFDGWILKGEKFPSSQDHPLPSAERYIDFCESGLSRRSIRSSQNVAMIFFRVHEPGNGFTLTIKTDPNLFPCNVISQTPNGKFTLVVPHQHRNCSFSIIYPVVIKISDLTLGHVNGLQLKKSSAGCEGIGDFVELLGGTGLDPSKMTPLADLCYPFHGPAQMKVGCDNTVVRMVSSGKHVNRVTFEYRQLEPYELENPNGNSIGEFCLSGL

[8] = biological target: T4, Corticotropin-releasing factor receptor 2/Corticotropin-releasing factor-binding protein; assay: Dose Response confirmation of uHTS hits for small molecule antagonists of the CRF-binding protein and CRF-R2 receptor complex.; format: functional; conditions: read-out: IC50_Mean
[9] = Shn3 3'UTR reporter inhibitors, dose response, cell-based, Clone20 osteoblasts, firefly luciferase, cherry-picked (AID 624132); format: functional;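 also: firefly luciferase luminescence from reporter carrying the Shn3 3'UTR in osteoblasts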
[10] = HepG2 cell cytotoxicity, dose response, cytotoxicity control for Shn3 inhibitor project, CellTiter-Glo, cherry-picked (AID 624134); format: functional, cell-based
[11] = tested on: Streptococcus sp. 'group A'; assay: growth inhibition of control SK(-) GAS strain, dose response, counter-screen for streptokinase expression inhibitor project, luminescence, kanamycin, BacTiterGlo, confirmation (AID 1900); format: functional, organism-based
[12] = HEp-2 cell cytotoxicity, dose response, cytotoxicity control for RSV inhibitor project, HTS (AID 2410); format: functional; conditions: human respiratory syncytial virus
Streptokinase A = biological target: T5, Streptokinase A (Streptococcus pyogenes serotype M1, UniProt P10520); assay: S. pyogenes streptokinase expression inhibitors, potency, dose response, plasminogen activation absorbance, OD405 (AID 1914); format: functional, Streptococcus pyogenes M1 GAS;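 also: secreted streptokinase activity via plasminogen activation per viability signal from cell pellet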
T5 sequence (P10520 whole entry): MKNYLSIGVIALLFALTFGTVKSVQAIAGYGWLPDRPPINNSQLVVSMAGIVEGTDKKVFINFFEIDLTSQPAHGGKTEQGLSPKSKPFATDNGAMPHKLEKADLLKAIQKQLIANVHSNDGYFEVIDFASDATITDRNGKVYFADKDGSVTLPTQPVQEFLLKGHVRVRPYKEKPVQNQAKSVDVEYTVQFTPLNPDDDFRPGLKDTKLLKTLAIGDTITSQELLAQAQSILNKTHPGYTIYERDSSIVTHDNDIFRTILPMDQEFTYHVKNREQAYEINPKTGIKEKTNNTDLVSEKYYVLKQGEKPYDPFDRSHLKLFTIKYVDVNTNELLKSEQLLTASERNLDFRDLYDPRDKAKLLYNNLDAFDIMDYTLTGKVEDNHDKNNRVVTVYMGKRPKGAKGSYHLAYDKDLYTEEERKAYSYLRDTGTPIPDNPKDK

Streptococcus = assay: Group A Streptococcus viability loss, dose response, counter-screen for streptokinase expression inhibitor project, luminescence, BacTiterGlo (AID 1915); format: functional, organism-based;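 also: potency for reduction of bacterial viability or growth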

Chain of Cytochrome P450 2D6 (P10635 whole entry): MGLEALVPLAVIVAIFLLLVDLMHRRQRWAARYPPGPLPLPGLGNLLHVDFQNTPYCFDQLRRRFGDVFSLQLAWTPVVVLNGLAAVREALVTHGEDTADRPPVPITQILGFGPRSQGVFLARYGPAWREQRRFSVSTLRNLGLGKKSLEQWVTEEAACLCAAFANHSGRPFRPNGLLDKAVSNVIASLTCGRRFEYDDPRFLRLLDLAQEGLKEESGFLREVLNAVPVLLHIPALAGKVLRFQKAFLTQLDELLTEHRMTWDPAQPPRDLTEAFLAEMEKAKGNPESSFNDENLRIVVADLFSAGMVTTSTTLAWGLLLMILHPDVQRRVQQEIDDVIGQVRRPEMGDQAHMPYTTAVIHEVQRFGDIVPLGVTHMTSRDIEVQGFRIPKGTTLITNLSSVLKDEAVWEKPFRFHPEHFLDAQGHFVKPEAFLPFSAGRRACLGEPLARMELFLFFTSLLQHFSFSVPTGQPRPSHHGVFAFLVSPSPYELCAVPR
Chain of Cytochrome P450 3A4 (P08684 whole entry): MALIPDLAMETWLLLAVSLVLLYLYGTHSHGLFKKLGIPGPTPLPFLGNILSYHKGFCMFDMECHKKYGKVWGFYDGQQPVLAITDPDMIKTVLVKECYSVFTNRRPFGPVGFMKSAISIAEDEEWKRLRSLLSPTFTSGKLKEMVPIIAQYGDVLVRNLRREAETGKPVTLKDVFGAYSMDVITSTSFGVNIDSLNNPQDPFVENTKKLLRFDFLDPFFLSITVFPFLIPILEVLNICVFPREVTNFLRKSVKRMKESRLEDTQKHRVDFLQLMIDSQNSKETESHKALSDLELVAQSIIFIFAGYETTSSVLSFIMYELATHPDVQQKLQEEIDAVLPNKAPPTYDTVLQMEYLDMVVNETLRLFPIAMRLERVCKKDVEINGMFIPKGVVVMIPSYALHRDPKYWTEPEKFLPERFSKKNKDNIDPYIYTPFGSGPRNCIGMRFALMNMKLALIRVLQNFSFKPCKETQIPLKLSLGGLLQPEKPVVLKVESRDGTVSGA
Chain of Cytochrome P450 2C19 (P33261 whole entry): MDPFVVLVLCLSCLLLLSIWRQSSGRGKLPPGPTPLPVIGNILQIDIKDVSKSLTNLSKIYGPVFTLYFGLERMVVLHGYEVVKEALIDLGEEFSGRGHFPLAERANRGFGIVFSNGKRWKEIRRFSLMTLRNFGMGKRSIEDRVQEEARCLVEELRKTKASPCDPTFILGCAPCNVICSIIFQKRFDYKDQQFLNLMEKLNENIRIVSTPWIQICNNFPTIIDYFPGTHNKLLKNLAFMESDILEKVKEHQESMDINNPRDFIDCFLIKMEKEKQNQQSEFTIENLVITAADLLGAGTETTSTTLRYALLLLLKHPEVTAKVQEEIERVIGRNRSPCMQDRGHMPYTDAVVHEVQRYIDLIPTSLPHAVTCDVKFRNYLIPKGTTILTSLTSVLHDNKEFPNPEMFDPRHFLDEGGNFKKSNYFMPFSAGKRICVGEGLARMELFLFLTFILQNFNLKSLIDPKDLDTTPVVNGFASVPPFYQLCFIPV
Chain of Cytochrome P450 2C9 (P11712 whole entry): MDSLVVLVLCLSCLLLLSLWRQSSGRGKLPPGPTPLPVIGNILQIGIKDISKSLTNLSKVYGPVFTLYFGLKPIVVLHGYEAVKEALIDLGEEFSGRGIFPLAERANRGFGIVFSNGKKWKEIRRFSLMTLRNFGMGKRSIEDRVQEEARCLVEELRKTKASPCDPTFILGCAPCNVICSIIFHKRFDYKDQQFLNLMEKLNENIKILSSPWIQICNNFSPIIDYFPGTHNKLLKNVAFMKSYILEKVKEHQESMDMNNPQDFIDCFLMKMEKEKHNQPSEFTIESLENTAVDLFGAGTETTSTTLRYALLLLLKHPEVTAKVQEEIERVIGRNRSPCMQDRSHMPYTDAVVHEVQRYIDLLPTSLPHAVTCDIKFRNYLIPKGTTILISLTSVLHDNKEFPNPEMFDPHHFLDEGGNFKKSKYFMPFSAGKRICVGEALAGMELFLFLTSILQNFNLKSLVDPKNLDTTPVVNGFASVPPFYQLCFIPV

CC(C)C(CCNC(=O)CC(Cc1ccccc1)c1ccco1)c1ccco1 (stereo not drawn)
AC50 (Cytochrome P450 2D6): 5.62 µM (inconclusive) | AC50 (Cytochrome P450 3A4): 39.8 µM (inconclusive) | AC50 (Cytochrome P450 2C19): 0.631 µM (inconclusive)

CCOC(=O)Nc1cccc(OCC(=O)Nc2ccccc2OC)c1
IC50 (cells): > 50 µM (active)

c1ccc(CC2CCN(C3=Nc4cccc5cccc3c45)CC2)cc1
EC50 [1]: 73.9 µM (active) | EC50 [2]: 0.935 µM (active) | EC50 [3]: > 30 µM (not active) | EC50 [4]: 4.58 µM (active) | CC50 [5]: > 40 µM (active)

Cc1cc(C)c2ccc3c(C)c(C)[nH]c3c2n1
IC50 (Protein skinhead-1): < 3.13 µM (active)

Clc1ccc(-c2csc(N3CCSCC3)n2)cc1
IC50 (Protein skinhead-1): > 100 µM (inactive)

CNc1ncnc2ccc(-c3ccccc3OC)cc12
AC50 (Cytochrome P450 2D6): 25.1 µM (inconclusive) | AC50 (Cytochrome P450 2C19): 31.6 µM (inconclusive)

CCCn1cnc2c(SCc3ccc(Cl)cc3)nc(N)nc21
AC50 (Cytochrome P450 2D6): 3.16 µM (inconclusive) | AC50 (Cytochrome P450 2C9): 6.31 µM (inconclusive) | AC50 (Cytochrome P450 3A4): 6.31 µM (inconclusive)

Cc1cnc(CNc2nc(-c3ccoc3)nc3ccccc23)cn1
AC50 (Cytochrome P450 2D6): 20 µM (inconclusive)

Cc1n[nH]c2c1C(c1ccc(OC(=O)c3ccco3)cc1)C(C#N)=C(N)O2 (stereo not drawn)
AC50 [6]: 9.43 µM (active) | EC50 (Protein RecA): 3.62 µM (active) | IC50 (cells): 35.2 µM (active)

Clc1ccc(-c2cc(CSc3cccc(Cl)c3)on2)cc1
IC50 (Protein skinhead-1): 59.2 µM (inactive)

COc1cccc(Cn2c(=O)c(-c3cccs3)nc3cncnc32)c1
AC50 (Cytochrome P450 2D6): 6.31 µM (inconclusive)

Cc1cccc(C(=O)N2CCc3ccccc3C2)c1[N+](=O)[O-]
EC50 [7]: > 53 µM (inactive) | IC50 [8]: > 47.1 µM (inactive)

COC(=O)C1=C(CN2CCSCC2)NC(=O)NC1c1cc(C)ccc1C (stereo not drawn)
IC50 (Protein skinhead-1): > 100 µM (inactive)

CC(C)(C)/C(O)=C/c1nc2ccccc2oc1=O
IC50 (cells): 3.06 µM (active)

CSc1cccc(NC(=O)Nc2ccc(Cl)cc2)c1
AC50 (Cytochrome P450 2D6): 3.55 µM (inconclusive) | AC50 (Cytochrome P450 3A4): 14.1 µM (inconclusive)

CC(C)COc1ccc(-c2nnc(-c3ccco3)o2)cc1
IC50 (Protein skinhead-1): > 100 µM (inactive)

CCOC(=O)CN(C(=O)CNC(=O)c1cccs1)C(C(=O)NC1CCCCC1)c1cccs1 (stereo not drawn)
IC50 (Protein skinhead-1): > 100 µM (inactive)

CCOC(=O)C(Cc1cc(C(C)=O)ccc1OCC)C(=O)OCC
IC50 (Protein skinhead-1): > 100 µM (inactive)

O=C1c2ccccc2C(=O)N1CCCSc1ccccc1
AC50 (Cytochrome P450 2D6): 3.16 µM (inconclusive)

Cc1ccc(S(=O)(=O)N2CCC3(CC2)OCCN3S(=O)(=O)c2c(C)cc(C)cc2C)cc1
AC50 [9]: 6.81 µM (active) | AC50 [10]: 56.1 µM (active)

COc1ccc(N(CC(=O)NC2CCCCC2)C(=O)CNC(=O)c2cccs2)cc1
IC50 (Protein skinhead-1): > 100 µM (inactive)

CCOC(=O)C(CC)/C(C)=N\NC(=O)c1cccc(C)c1 (stereo not drawn)
EC50 [7]: > 53 µM (inactive) | IC50 [8]: > 47.1 µM (inactive)

O=C(NCC1CC1)c1ccc(-c2cn[nH]c2)c2ccoc12
IC50 (Protein skinhead-1): 100 µM (inactive)

CN1c2ccsc2/C(=N/Nc2ccccc2)CS1(=O)=O
EC50 [11]: 2.34 µM (active) | CC50 [12]: > 50 µM (active) | EC50 (Streptokinase A): 4.12 µM (active) | EC50 (Streptococcus): 16.1 µM (active) | IC50 (cells): 37 µM (active)
